Patent publication US8758746B2, “Fertilization modulation compounds and process for implementing them” (Universite Joseph Fourier, priority 2009, dated 2014)
Entries after “also recorded” stand apart in the source; their conditions may differ.

Legend:
Sperm cells [1] = assay: Electron microscopy of sPLA2-induced acrosome reaction; assay type: cell-based, mouse; details: uncapacitated sperm, incubated 10 min (200 nM sPLA2)
Method: Sperm cells were fixed with 2.5% glutaraldehyde in 0.1 M cacodylate buffer pH 7.4 during 2 hours at room temperature. Cells were then washed with buffer and post fixed with 1% Osmium tetroxyde in the same buffer during 1 hour at 4° C. After extensive washing with water cells were then stained with 0.5% uranile acetate pH 4 overnight at 4° C. Cells were then dehydrated through graded alcohol (30%-60%-90%-100%-100%-100%) and infiltrate with a mix of 1/1 epon/alcohol 100% during 1 hour before several bath of fresh epon (Flukka) during 3 hours. Finally, cells were centrifugated and immersed in fresh Epon and polymerised during 3 days at 60° C. Ultrathin sections of the cell pellet were cut with an ultramicrotome (Leica). Sections were post-stained with 4% uranile acetate and 1% lead citrate before being observed in an electron microscope at 80 kV (JEOL 1200EX).
It was important to check with electron microscopy (EM) that sPLA2 induced a morphologically normal acrosome reaction. The morphological criteria by which an acrosome reaction is evaluated to be normal are relatively limited: first, the outer acrosomal membrane should present vesiculation, second, the plasma membrane should fuse with the outer acrosomal membrane and present a characteristic double hair pin shape at the base of the acrosome (Green, D. P. (1978) The induction of the acrosome reaction in guinea-pig sperm by the divalent metal cation ionophore A23187. J. Cell Sci., 32:137-51.:137-151.)
For these experiments, uncapacitated sperm was used in order to reduce the contribution of spontaneous AR and 200 nM sPLA2 to get maximum sPLA2-induced AR. Sperm were incubated 10 min with mGX sPLA2 or the calcium ionophore A23187 and then fixed. In the presence of A23187, all acrosome-reacted sperm presented complete AR, with the 3 morphological criteria, as described above.

Sperm cells [2] = assay: Detection of mGX sPLA2 released from sperm cells (TR-FIA); assay type: cell-based, mouse; details: 90 min capacitation in 2% BSA, A23187 (5 μM) during the last 30 min
Method: Sperm cells from 4 caudae epididymes of mGX sPLA2 mice were allowed to swim for 15 min at 37° C. in 2.5 ml of M2 medium. Aliquots of 500 μl of sperm cells were then diluted in 4.5 ml of M16 medium containing 2% fatty acid free BSA and further incubated at 37° C. for 0, 45 and 90 min. In some assays, A23187 Ca2+ ionophore (5 μM) was added after the first 60 min of incubation and sperm cells were incubated for an additional 30 min. After incubation, sperm cells were spun down for 8 min at 1,200 rpm, and supernatants and cell pellets were flash frozen in liquid nitrogen and stored at −80° C. mGX sPLA2 protein expression and enzymatic activity were analyzed on crude cell supernatants and cell pellets after resuspension in 500 μl of M16 medium containing a cocktail of protease inhibitors (Complete inhibitor set, Roche Biochemicals) and lysis with a Branson 350 Sonifier Cell disrupter. […] Briefly, 5 to 50 μl of cell lysates or supernatants were incubated for 60 min in 300 μl of sPLA2 activity buffer (0.1 M Tris pH 8.0, 10 mM CaCl2, and 0.1% bovine serum albumin containing 100,000 DPM of [3H]oleate-radiolabeled E. coli membranes. Reactions were stopped by addition of 300 μl of stop buffer (0.1 M EDTA pH 8.0 and 0.1% fatty acid free bovine serum Albumin); mixtures were centrifuged at 10,000 g for 5 min, and the supernatants containing released [^3H]oleate were counted.

CNc1ccc2oc(C[C@H]3O[C@@]4(CC[C@H]3C)O[C@H]([C@H](C)C(=O)c3ccc[nH]3)[C@H](C)C[C@H]4C)nc2c1C(=O)O [A23187]
morphology of induced acrosome reaction (electron microscopy) (Sperm cells [1]): complete AR
mGX level in the capacitation medium (TRFIA) (Sperm cells [2]): two fold increase; also recorded: doubled
